The term ED50 denotes the dose at which the effect has come halfway, by size or by number of responders. As usually defined, the LD50 is the dose expected to kill half of the subjects tested.

We go through 4 compounds from patent publication US4061637A, “Certain 4-aryl-5-(4-phenylpiperazino)alkyl-4-thiazolin-2-ones” (priority 1974, dated 1977).

SMILES strings stand for the structures. ≈ marks a conversion by molar mass, not a printed value. Counter-ions that a name gives are not always drawn.

Data set [1] is described as follows: Antagonism towards electric shock convulsions in the mouse. Format: in vivo. To be noted: po, 0.5 h, mouse, 35 volt, read-out: Anti-convulsion activity, electric shock, mouse, % att.; for inhibition in vivo at 26 mg/kg: 26 mg/kg os.
Procedure: This is evaluated by observing the protection given by pretreatment with the drug (30 minutes) against tonic convulsions obtained by applying a 35 volt current to the eyeballs.
A short description of data set [2]: Fibrillation induced by CaCl2 of the rat anaesthetised with urethane (anti-arrhythmic activity). The data set is classed as in vivo. To be noted: for selectivity ratio: in vivo, LD50 rat iv / ED50 CaCl2, read-out: I.T. (1), therapeutic index from the ratio LD50 rat iv/ED50; for ED50: rat anaesthetised with urethane, iv. As for the experimental part: Fibrillation induced by CaCl2 of the rat anaesthetised with urethane (1 g/kg ip)
The method described by Malinow and colleagues (Rev. Argent. Cardiol., 19, 120, 1952) was followed, which consists of inducing cardiac fibrillation by administering intravenously 2 ml/kg of an 8% solution of CaCl2 in rats pretreated intravenously with scalar doses of anti-arrhythmics. The ED50 was calculated for each active drug.

The subject of data set [3] is Rabbit platelet aggregation. Kind of data set: Rabbit platelet aggregation in vitro. The data set is classed as cell-based. To be noted: Oryctolagus cuniculus, rabbit PRP, aggregation by sodium adenosine diphosphate, read-out: Platelet anti-aggregation activity, rabbit in vitro ED50. On the procedure:
Rabbit platelet aggregation in vitro The method of […] (Pharmacology, 7, 115, 1972) was followed. Blood taken from conscious rabbits is centrifuged in the presence of sodium citrate (3.8%) at 350 g. for 10 minutes, so as to separate the plasma rich in platelets (PRP) from the rest. The aggregation of the platelets is carried out by bringing the PRP into contact with adequate doses of sodium adenosine diphosphate in the presence of a possible inhibitor or its carrier. The measurement of aggregation is made continuously by a turbidimetric method.

A short description of data set [4]: Acute toxicity under LD50 mouse. The note with it: in vivo, ip.
The nature of data set [5]: Arrhythmias induced by electrical stimulation of the isolated rabbit atrium (anti-arrhythmic activity). The note with it: TD / ED30, isolated rabbit atrium; read-out: I.T. (2), therapeutic index from the ratio TD/ED30. As for the experimental part: (§1) The ED30 in the presence of scalar concentrations of anti-arrhythmic substances was measured.
Data set [6] deals with isolated rabbit atrium. The description is as above. The note with it: for EC30: Oryctolagus cuniculus, read-out: anti-arrhythmic activity, Electrical stimulation in isolated rabbit atrium ED30. As for the experimental part: as §1
Data set [7] is described as follows: Inhibition of spontaneous motility in the mouse. The data set is classed as in vivo. To be noted: mouse; for ED50: po, 0.5 h, os, 30 minutes after treatment, read-out: Spontaneous motility inhibition mouse ED50.
Procedure: This is evaluated by an actophotometric method, which consists of placing the mice, 30 minutes after oral treatment with the drug or the carrier, in a cage provided with a photoelectric cell counter and counting the number of times the photoelectric cell is passed during a 10 minute stay.
The nature of data set [8]: Ulcers by constriction (stress) in the rat. The data set is classed as in vivo. The note with it: 4 h, rat; for responders at 10 mg/kg / inhibition in vivo at 10 mg/kg: 10 mg/kg ip.
Procedure: The method described by Rossi and colleagues (Compt. Rend. Soc. Biol., 150, 2124, 1956) was followed in which the formation of gastric ulcers is induced by immobilising the animal, in a state of fast for 48 hours, in a net for a period of 4 hours.
The protection given by treatment with the drug under examination before the beginning of the constriction period is evaluated by counting both the ulcers and the number of subjects without ulcers.
Data set [9] in a line: Pinching the tail of the mouse (systemic analgesic activity). The data set is classed as in vivo. The note with it: po, 0.5 h, mouse, 30 minutes; for inhibition in vivo at 26 mg/kg: 26 mg/kg os.
Procedure: To evaluate the analgesic activity, the method described by Bianchi and colleagues (Brit. J. Pharmacol., 9, 280, 1954) was followed which consists of applying an arterial pincer to the base of the tail in animals treated orally 30 minutes previously with the drug under examination, observing that the control animals react to the pain by squealing.
Data set [10] is described as follows: Acute toxicity rat LD50 iv. To be noted: in vivo.
Data set [11] relates to nor-adrenalin. Kind of data set: Antagonism towards a lethal dose of nor-adrenalin in the rat (α-adrenolytic activity). The data set is classed as in vivo. On the procedure: Antagonism towards a lethal dose of nor-adrenalin in the rat
The animals are treated with a dose of nor-adrenalin (0.5 mg/kg) which is 100% lethal in animals. The activity is calculated by the number of animals protected from death by prior administration of the drug under examination one hour before the agonist. Where possible the ED50 was calculated.

The nature of data set [12]: Carrageen oedema in the conscious rat (anti-inflammatory activity). The data set is classed as in vivo.
Procedure: Anti-inflammatory activity was evaluated by the method of Winter and colleagues (Proc. Soc. Exp. Biol., 111, 544, 1962) by endoperitoneally injecting the product under examination one hour before inducing oedema by injecting 0.05 ml. of a 1% suspension of carrageen (intradermally into the plantar portion of a rear paw).
The difference between the volume of the paw determined plethysmographically one hour before and three hours after the carrageen gives a quantitative estimate of the activity of the product tested. Where possible, the ED30 was calculated.
Data set [13] in a line: Cataleptic activity in the mouse. The data set is classed as in vivo. To be noted: po; mouse, os; read-out: Cataleptic activity mouse ED50.
Setting [14] is: read-out: Anti-ulcer activity, ulcers by stress in the rat, Protected rats %.
Setting [15] is: read-out: Anti-ulcer activity, ulcers by stress in the rat, Reduction in ulcers %.

On to `CCN(CC)CCc1sc(=O)[nH]c1-c1ccc(F)cc1` [LR 602, 4-p-fluorophenyl-5-β-diethylaminoethyl-4-thiazolin-2-one], for which the inhibition in vivo at 26 mg/kg in data set [1] was determined as 0%; in data set [9], 30%. The selectivity ratio amounted to 24 in [2] and 30 in data set [5]. Also, the median effective dose (ED50) in data set [2] came out at 3.5 mg/kg; in data set [7] it was 30 mg/kg. Also, the IC50 in data set [3] turned out to be 800 µg/mL (≈ 2720 µM). Also, the figures for the LD50 in [4] and in [10] were 125 mg/kg and 84 mg/kg, respectively. The EC30 in [6] stood at 10 µg/mL (≈ 34 µM). Also, the “TD (dose which abolishes the spontaneous contraction of the atrium)” value (“TD” below) in data set [6] (rabbit) is 300 µg/mL. Further, in data set [8] (setting [14]), the responders at 10 mg/kg amounted to 50%. In data set [8] (setting [15]), the inhibition in vivo at 10 mg/kg turned out to be 65%. In addition, the “α-adrenolytic activity lethal NA rat, percentage activity (ED50 lacking)” value in data set [11] (7 mg/kg os) is recorded as 0%.
In the case of `Cl.O=c1[nH]c(-c2ccc(F)cc2)c(CCN2CCCCC2)s1` [LR 617, 4-p-fluorophenyl-5-β-piperidinoethyl-4-thiazolin-2-one hydrochloride], the selectivity ratio turned out to be 15 in [2] and 69 in data set [5]. Further, the 50% effective dose (ED50) in [2] was found to be 4 mg/kg; in data set [7] it was 19.6 mg/kg. The IC50 in data set [3] worked out at 800 µg/mL. In addition, the 50% lethal dose (LD50) in data set [4] was 100 mg/kg; in data set [10] it was 62 mg/kg. The EC30 in data set [6] is 4.3 µg/mL. The “TD” value in data set [6] (rabbit) turned out to be 300 µg/mL. Besides, the responders at 10 mg/kg in data set [8] (setting [14]) worked out at 10%. Besides, the inhibition in vivo at 10 mg/kg in data set [8] (setting [15]) turned out to be 17%. Besides, the “α-adrenolytic activity lethal NA rat, percentage activity (ED50 lacking)” value in data set [11] (5 mg/kg os) turned out to be 0%.
As for `Cl.O=c1[nH]c(-c2ccc(F)cc2)c(CCN2CCOCC2)s1` [LR 618, 4-p-fluorophenyl-5-β-morpholinoethyl-4-thiazolin-2-one hydrochloride], the inhibition in vivo at 60 mg/kg in data set [1] (60 mg/kg os) came to 10%; in data set [9] (60 mg/kg os, read-out: Systemic analgesic activity, tail pinching in mouse, %) it was 40%. The selectivity ratio in data set [2] came to 9; in [5], 8.5. Besides, the ED50 in data set [2] worked out at 15 mg/kg; in data set [7], 60 mg/kg; in data set [13], 60 mg/kg. In data set [3], the IC50 came out at 650 µg/mL. Besides, the “Anti-inflammatory activity carrageenin oedema rat, percentage activity (ED30 lacking)” value in [12] (60 mg/kg ip) is 9.8%. The median lethal dose (LD50) is 250 mg/kg in [4] and 130 mg/kg in data set [10]. Further, in data set [6], the EC30 came out at 35.4 µg/mL. Also, the “TD” value in data set [6] (rabbit) was 300 µg/mL. In addition, the responders at 30 mg/kg in [8] (30 mg/kg ip, read-out: Anti-ulcer activity, ulcers by stress in the rat, Protected rats %) is 50%. The inhibition in vivo at 30 mg/kg in data set [8] (30 mg/kg ip, read-out: Anti-ulcer activity, ulcers by stress in the rat, Reduction in ulcers %) stood at 71%. Also, the “α-adrenolytic activity lethal NA rat, percentage activity (ED50 lacking)” value in [11] (15 mg/kg os) was found to be 0%.
Turning to `COc1ccc(-c2[nH]c(=O)sc2CCN(C)CCc2ccccc2)cc1` [LR 620, 4-p-methoxyphenyl-5-β-(N-methylphenylethylamino)-ethyl-4-thiazolin-2-one maleate], the figures for the inhibition in vivo at 26 mg/kg in data set [1] and in data set [9] were 20% and 0%, respectively. Also, the selectivity ratio in data set [2] is 12; in [5], 30. Also, the 50% effective dose (ED50) in [2] amounted to 2 mg/kg; in [11] (Rattus norvegicus, po, 1 h, read-out: α-adrenolytic activity lethal NA rat ED50), 5 mg/kg. Besides, in data set [3], the IC50 amounted to 650 µg/mL. In addition, in data set [12] (1 h, ip, one hour before carrageen, read-out: Anti-inflammatory activity carrageenin oedema rat ED30), the ED30 worked out at 36 mg/kg. Moreover, the 50% lethal dose (LD50) in data set [4] is 100 mg/kg; in [10], 24 mg/kg. Moreover, the EC30 in data set [6] was determined as 1 µg/mL. Besides, in [6] (isolated rabbit atrium), the “TD” value stood at 30 µg/mL. Besides, in [7] (26 mg/kg os), the “Spontaneous motility inhibition mouse, percentage activity (ED50 lacking)” value is reported as 0%. Besides, in data set [8] (setting [14]), the responders at 10 mg/kg worked out at 0%. The inhibition in vivo at 10 mg/kg in data set [8] (setting [15]) stood at 0%.
